Measurements published in PubChem BioAssay (NCI).
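Cultured in 96-well plates, cells were exposed to test compound for 48 hours across five concentrations. TGI: total growth inhibition.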

Columns and labels:
Assay in all cases: inhibition of tumour cell growth, NCI panel, 48 h
U251 CNS = system: U251 CNS
MALME-3M melanoma = system: MALME-3M melanoma
SW-620 colon = system: SW-620 colon
HOP-92 NSCLC = system: HOP-92 NSCLC
HS 578T breast = system: HS 578T breast
HL-60(TB) leukemia = system: HL-60(TB) leukemia
LOX IMVI melanoma = system: LOX IMVI melanoma
NCI-H226 lung = system: NCI-H226 lung
HOP-62 NSCLC = system: HOP-62 NSCLC
K-562 leukemia = system: K-562 leukemia

## S=C(Nc1cccc(C2(N3CCCCC3)CCCCC2)c1)Nc1cccc(C2(N3CCCCC3)CCCCC2)c1
U251 CNS
  TGI: 50.4 µM
MALME-3M melanoma
  TGI: 36.1 µM
SW-620 colon
  TGI: > 100 µM
HOP-92 NSCLC
  TGI: 43.9 µM
HS 578T breast
  TGI: > 100 µM
HL-60(TB) leukemia
  TGI: 38.2 µM
LOX IMVI melanoma
  TGI: 26.7 µM
NCI-H226 lung
  TGI: 78.5 µM
HOP-62 NSCLC
  TGI: > 100 µM
K-562 leukemia
  TGI: 27.5 µM

## C=CC[C@H]1[C@H](O[Si](C)(C)C(C)(C)C)C=CC(=O)[C@@H]1CC(=O)OCC
U251 CNS
  TGI: 27.8 µM
MALME-3M melanoma
  TGI: 25.9 µM
SW-620 colon
  TGI: 33 µM
HOP-92 NSCLC
  TGI: 24.2 µM
HS 578T breast
  TGI: 43.4 µM
HL-60(TB) leukemia
  TGI: 24.8 µM
LOX IMVI melanoma
  TGI: 32 µM
NCI-H226 lung
  TGI: 29.2 µM
HOP-62 NSCLC
  TGI: 34.5 µM
K-562 leukemia
  TGI: 20.4 µM

## CC/C=C/C(/C=C/C[C@]1(CC)C[C@H](CC)[C@H](CC(=O)O)OO1)CC (stereo not given in full)
U251 CNS
  TGI: 3.36 µM
MALME-3M melanoma
  TGI: 29.3 µM
SW-620 colon
  TGI: 5.1 µM
HOP-92 NSCLC
  TGI: 4.72 µM
HS 578T breast
  TGI: 4.85 µM
HL-60(TB) leukemia
  TGI: 4.76 µM
LOX IMVI melanoma
  TGI: 1.76 µM
NCI-H226 lung
  TGI: 57.9 µM
HOP-62 NSCLC
  TGI: 3.5 µM
K-562 leukemia
  TGI: > 29.8 µM

## NCCCCCNOCCCN
U251 CNS
  TGI: > 100 µM
MALME-3M melanoma
  TGI: > 100 µM
SW-620 colon
  TGI: > 100 µM
HOP-92 NSCLC
  TGI: > 100 µM
HS 578T breast
  TGI: > 100 µM
HL-60(TB) leukemia
  TGI: > 100 µM
LOX IMVI melanoma
  TGI: > 100 µM
NCI-H226 lung
  TGI: > 100 µM
HOP-62 NSCLC
  TGI: > 100 µM
K-562 leukemia
  TGI: > 100 µM

## COc1nc(C)nc2c1ncn2Cc1ccccc1
U251 CNS
  TGI: > 100 µM
MALME-3M melanoma
  TGI: > 100 µM
SW-620 colon
  TGI: > 100 µM
HOP-92 NSCLC
  TGI: 53.9 µM
HS 578T breast
  TGI: > 100 µM
HL-60(TB) leukemia
  TGI: > 100 µM
LOX IMVI melanoma
  TGI: > 100 µM
NCI-H226 lung
  TGI: > 100 µM
HOP-62 NSCLC
  TGI: > 100 µM
K-562 leukemia
  TGI: > 100 µM

## CC(C)(CN)SCc1ccccc1
U251 CNS
  TGI: > 100 µM
MALME-3M melanoma
  TGI: > 100 µM
SW-620 colon
  TGI: > 100 µM
HOP-92 NSCLC
  TGI: > 100 µM
HS 578T breast
  TGI: > 100 µM
HL-60(TB) leukemia
  TGI: > 100 µM
LOX IMVI melanoma
  TGI: > 100 µM
NCI-H226 lung
  TGI: > 100 µM
HOP-62 NSCLC
  TGI: > 100 µM
K-562 leukemia
  TGI: > 100 µM

## COC(=O)CCC(C)[C@H]1CCC2C3C(C[C@H](OC(C)=O)[C@@]21C)[C@@]1(C)CCC2(C[C@H]1C[C@H]3OC(C)=O)OOC1(CCCCC1)OO2 (stereo not given in full)
U251 CNS
  TGI: > 100 µM
MALME-3M melanoma
  TGI: 97.4 µM
SW-620 colon
  TGI: > 100 µM
HOP-92 NSCLC
  TGI: 26.5 µM
HS 578T breast
  TGI: 63.5 µM
HL-60(TB) leukemia
  TGI: > 100 µM
LOX IMVI melanoma
  TGI: > 100 µM
NCI-H226 lung
  TGI: > 100 µM
HOP-62 NSCLC
  TGI: 8.31 µM
K-562 leukemia
  TGI: > 100 µM

## Nc1nc(NCCOCP(=O)(O)O)c(N)c(=O)[nH]1
U251 CNS
  TGI: > 100 µM
MALME-3M melanoma
  TGI: > 100 µM
SW-620 colon
  TGI: > 100 µM
HOP-92 NSCLC
  TGI: > 100 µM
HS 578T breast
  TGI: > 100 µM
HL-60(TB) leukemia
  TGI: > 100 µM
LOX IMVI melanoma
  TGI: > 100 µM
NCI-H226 lung
  TGI: > 100 µM
HOP-62 NSCLC
  TGI: > 100 µM
K-562 leukemia
  TGI: > 100 µM
